Test results as given in US12129246B1, “Hydroquinazoline derivatives for the treatment of a disease or disorder” (Novartis AG, priority 2023, dated 2024).
Where two headings read alike, the source gives them in different places.

Key:
monkey NPR1 = monkey NPR1 (Macaca fascicularis, UniProt A0A7N9DBT9); test: Cellular cGMP production assay, monkey NPR1 expressing CHO-K1 cells (CisBio HTRF); format: cell-based; settings: for Monkey NPR1 Amax (% of ANP): maximum cGMP production as percentage of the maximum cGMP produced with ANP
Method in brief: (§1)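 Cells receive IBMX (1 mM) assay buffer plus test compound over twelve threefold dilutions starting at 30 μM, and cGMP accumulates for 30 min at 37 °C. Lysates are then incubated one hour at room temperature with d2-labelled cGMP and cryptate-labelled antibody before time-resolved fluorescence reading.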

human NPR1 = molecular target: T1, human NPR1 (Homo sapiens, UniProt P16066); test: Cellular cGMP production assay, human NPR1 expressing CHO-K1 cells (CisBio HTRF); format: cell-based; settings: for AC50: cGMP production, 30 min at 37° C., 12-point dose-response from 30 μM; for Human NPR1 Amax (% of ANP): maximum cGMP production as percentage of the maximum cGMP produced with ANP
T1 construct: host or cells: CHO-K1
T1 sequence (P16066 33-1061): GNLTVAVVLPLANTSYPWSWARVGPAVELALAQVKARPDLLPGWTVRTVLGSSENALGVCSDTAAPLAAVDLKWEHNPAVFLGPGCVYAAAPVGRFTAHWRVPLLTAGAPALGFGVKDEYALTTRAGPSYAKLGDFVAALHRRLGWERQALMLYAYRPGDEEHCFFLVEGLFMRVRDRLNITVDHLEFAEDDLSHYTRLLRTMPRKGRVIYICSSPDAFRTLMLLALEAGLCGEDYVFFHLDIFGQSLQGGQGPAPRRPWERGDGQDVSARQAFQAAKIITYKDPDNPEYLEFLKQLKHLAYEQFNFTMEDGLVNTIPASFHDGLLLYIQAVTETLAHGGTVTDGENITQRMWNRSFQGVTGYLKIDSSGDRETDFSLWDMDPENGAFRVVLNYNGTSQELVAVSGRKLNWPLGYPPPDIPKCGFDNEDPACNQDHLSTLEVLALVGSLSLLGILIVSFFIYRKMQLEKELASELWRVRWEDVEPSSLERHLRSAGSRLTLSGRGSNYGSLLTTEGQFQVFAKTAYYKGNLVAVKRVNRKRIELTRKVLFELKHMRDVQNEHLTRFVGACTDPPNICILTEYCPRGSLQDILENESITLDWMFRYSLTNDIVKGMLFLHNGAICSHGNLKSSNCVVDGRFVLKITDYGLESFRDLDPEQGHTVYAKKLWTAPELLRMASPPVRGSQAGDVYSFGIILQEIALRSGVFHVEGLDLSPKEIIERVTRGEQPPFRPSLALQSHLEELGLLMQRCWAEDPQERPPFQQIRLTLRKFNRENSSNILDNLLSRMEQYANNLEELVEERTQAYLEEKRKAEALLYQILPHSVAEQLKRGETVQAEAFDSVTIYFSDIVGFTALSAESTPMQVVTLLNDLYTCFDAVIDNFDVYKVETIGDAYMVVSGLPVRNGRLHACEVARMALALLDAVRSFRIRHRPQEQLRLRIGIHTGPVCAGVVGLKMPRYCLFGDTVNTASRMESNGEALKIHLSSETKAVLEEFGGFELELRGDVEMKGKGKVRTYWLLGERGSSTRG
Method in brief: as §1

[1] = cGMP production, monkey NPR1 CHO-K1 cells, 30 min at 37° C., 12-point dose-response from 30 μM, read-out: Monkey NPR1 AC50

monkey NPR1, sequence (A0A7N9DBT9 entry or part of it): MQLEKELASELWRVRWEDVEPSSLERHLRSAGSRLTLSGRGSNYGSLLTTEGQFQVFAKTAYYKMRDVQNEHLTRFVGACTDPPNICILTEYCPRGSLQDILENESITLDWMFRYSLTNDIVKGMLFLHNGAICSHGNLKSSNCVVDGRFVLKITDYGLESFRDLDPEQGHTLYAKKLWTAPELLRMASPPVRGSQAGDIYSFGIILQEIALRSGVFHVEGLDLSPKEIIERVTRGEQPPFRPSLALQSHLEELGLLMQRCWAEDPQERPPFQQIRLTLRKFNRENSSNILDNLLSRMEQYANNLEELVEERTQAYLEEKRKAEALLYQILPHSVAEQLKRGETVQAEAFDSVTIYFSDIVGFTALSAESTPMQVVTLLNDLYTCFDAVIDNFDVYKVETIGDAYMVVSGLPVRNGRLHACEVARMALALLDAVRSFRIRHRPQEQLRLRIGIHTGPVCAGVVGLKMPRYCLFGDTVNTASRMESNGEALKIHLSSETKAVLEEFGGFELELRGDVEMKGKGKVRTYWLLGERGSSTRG

Structure (SMILES) | AC50 (monkey NPR1) [nM] | Monkey NPR1 Amax (% of ANP) (monkey NPR1; monkey NPR1 CHO-K1 cells) | AC50 (human NPR1) [nM] | Human NPR1 Amax (% of ANP) (human NPR1) | AC50 (monkey NPR1; [1]) [nM]
CC[C@H]([C@H]1CC[C@H](C(=O)O)CC1)N(C)c1nc2c(c(N[C@@H](CN3C4CCCC3CC4)c3cnn(C)c3)n1)CN(c1ccc(F)cc1)CC2 [Compound 80, (1R,4r)-4-((1R)-1-((4-(((1R)-2-(8-azabicyclo[3.2.1]octan-8-yl)-1-(1-methyl-1H-pyrazol-4-yl)ethyl)amino)-6-(4-fluorophenyl)-5,6,7,8-tetrahydropyrido[4,3-d]pyrimidin-2-yl)(methyl)amino)propyl)cyclohexane-1-carboxylic acid] | 137 | 102.546 % of ANP | 267 | 94.876 % of ANP | 
CC[C@H]([C@H]1CC[C@H](C(=O)O)CC1)N(C)c1nc2c(c(N[C@@H](CN3C4CCCC3CC4)c3cnc(C)s3)n1)C[C@H](c1cccc(F)c1)CC2 [Compound 81, (1R,4r)-4-((1R)-1-(((6R)-4-(((1S)-2-(8-azabicyclo[3.2.1]octan-8-yl)-1-(2-methylthiazol-5-yl)ethyl)amino)-6-(3-fluorophenyl)-5,6,7,8-tetrahydroquinazolin-2-yl)(methyl)amino)propyl)cyclohexane-1-carboxylic acid] | 175 | 100.863 % of ANP | 271 | 101.636 % of ANP | 
CC[C@H]([C@H]1CC[C@](F)(C(=O)O)CC1)N(C)c1nc2c(c(N[C@H](CN3CCC[C@H](C)C3)c3cnn(C)c3)n1)C[C@H](c1ccccc1)CC2 [Compound 82, (1S,4s)-1-fluoro-4-((R)-1-(methyl((R)-4-(((S)-1-(1-methyl-1H-pyrazol-4-yl)-2-((S)-3-methylpiperidin-1-yl)ethyl)amino)-6-phenyl-5,6,7,8-tetrahydroquinazolin-2-yl)amino)propyl)cyclohexane-1-carboxylic acid] |  | 106.556 % of ANP | 272 | 96.493 % of ANP | 278
CC[C@H]([C@H]1CC[C@H](C(=O)O)CC1)N(C)c1nc2c(c(N[C@@H](CN3CCC[C@H](COC)C3)c3cnn(C)c3)n1)C[C@H](c1ccccc1)CC2 [Compound 83, (1R,4r)-4-((R)-1-(((R)-4-(((R)-2-((S)-3-(methoxymethyl)piperidin-1-yl)-1-(1-methyl-1H-pyrazol-4-yl)ethyl)amino)-6-phenyl-5,6,7,8-tetrahydroquinazolin-2-yl)(methyl)amino)propyl)cyclohexane-1-carboxylic acid] |  | 98.205 % of ANP | 282 | 98.117 % of ANP | 173
CC[C@@H](Nc1nc2c(c(N[C@@H](CN3CCC[C@@H](C)C3)c3cnn(C)c3)n1)C[C@H](c1ccccc1)CC2)[C@H]1CC[C@H](C(=O)O)CC1 [Compound 84, (1R,4r)-4-((R)-1-(((R)-4-(((R)-1-(1-methyl-1H-pyrazol-4-yl)-2-((R)-3-methylpiperidin-1-yl)ethyl)amino)-6-phenyl-5,6,7,8-tetrahydroquinazolin-2-yl)amino)propyl)cyclohexane-1-carboxylic acid] |  | 102.883 % of ANP | 284 | 100.223 % of ANP | 191
CC[C@@H](Nc1nc2c(c(N[C@@H](CN3CCCC3)c3ccccc3)n1)C[C@H](c1ccccc1)CC2)[C@H]1CC[C@H](C(=O)O)CC1 [Compound 85, (1R,4r)-4-((R)-1-(((R)-6-phenyl-4-(((R)-1-phenyl-2-(pyrrolidin-1-yl)ethyl)amino)-5,6,7,8-tetrahydroquinazolin-2-yl)amino)propyl)cyclohexane-1-carboxylic acid] |  | 95.638 % of ANP | 285 | 102.461 % of ANP | 238
CC[C@@H](Nc1nc2c(c(N[C@@H](CN3CC4CCC3C4)c3ccc(F)cc3)n1)C[C@H](c1ccccc1)CC2)[C@H]1CC[C@H](C(=O)O)CC1 (stereo partly drawn) [Compound 86, (1R,4r)-4-((1R)-1-(((6R)-4-(((1R)-2-(2-azabicyclo[2.2.1]heptan-2-yl)-1-(4-fluorophenyl)ethyl)amino)-6-phenyl-5,6,7,8-tetrahydroquinazolin-2-yl)amino)propyl)cyclohexane-1-carboxylic acid] |  | 92.318 % of ANP | 286 | 101.050 % of ANP | 192
CC[C@H]([C@H]1CC[C@H](C(=O)O)CC1)N(C)c1nc2c(c(N[C@@H](CN3CCC[C@H](CF)C3)c3cnn(C)c3)n1)C[C@H](c1ccccc1)CC2 [Compound 87, (1R,4r)-4-((R)-1-(((R)-4-(((R)-2-((S)-3-(fluoromethyl)piperidin-1-yl)-1-(1-methyl-1H-pyrazol-4-yl)ethyl)amino)-6-phenyl-5,6,7,8-tetrahydroquinazolin-2-yl)(methyl)amino)propyl)cyclohexane-1-carboxylic acid] |  | 100.104 % of ANP | 292 | 93.715 % of ANP | 235
CC[C@H]([C@H]1CC[C@H](C(=O)O)CC1)N(C)c1nc2c(c(N[C@@H](CN3C4CCCC3CC4)c3cc(C)n(C)n3)n1)C[C@H](c1cccc(F)c1)CC2 [Compound 88, (1R,4r)-4-((1R)-1-(((6R)-4-(((1S)-2-(8-azabicyclo[3.2.1]octan-8-yl)-1-(1,5-dimethyl-1H-pyrazol-3-yl)ethyl)amino)-6-(3-fluorophenyl)-5,6,7,8-tetrahydroquinazolin-2-yl)(methyl)amino)propyl)cyclohexane-1-carboxylic acid] | 255 | 94.699 % of ANP | 303 | 98.817 % of ANP | 
CC[C@@H](N(C)c1nc2c(c(N[C@@H](CN3C4CCCC3CCC4)c3cnn(C)c3C)n1)C[C@H](c1cccc(F)c1)CC2)C12CC(C(=O)O)(C1)C2 [Compound 89, 3-((R)-1-(((R)-4-(((R)-2-((1S,5S)-9-azabicyclo[3.3.1]nonan-9-yl)-1-(1,5-dimethyl-1H-pyrazol-4-yl)ethyl)amino)-6-(3-fluorophenyl)-5,6,7,8-tetrahydroquinazolin-2-yl)(methyl)amino)propyl)bicyclo[1.1.1]pentane-1-carboxylic acid] | 268 | 103.084 % of ANP | 309 | 98.816 % of ANP | 
CC[C@@H](Nc1nc2c(c(N[C@@H](CN3CCCC[C@H]3C)c3cnn(C)c3)n1)C[C@H](c1ccccc1)CC2)[C@H]1CC[C@H](C(=O)O)CC1 [Compound 90, (1R,4r)-4-((R)-1-(((R)-4-(((R)-1-(1-methyl-1H-pyrazol-4-yl)-2-((R)-2-methylpiperidin-1-yl)ethyl)amino)-6-phenyl-5,6,7,8-tetrahydroquinazolin-2-yl)amino)propyl)cyclohexane-1-carboxylic acid] |  | 106.347 % of ANP | 313 | 103.308 % of ANP | 224
